Where two headings read alike, the source gives them in different places.
Columns and labels:
ATP [1] = test: ATP gel shift acylation
Description: ATP gel shift. […] Chem. Soc. 127, 4223-4231, (2005).

5S rRNA [2] = test: Acylation of RNA in yeast cells; type: cell-based, Saccharomyces cerevisiae
Protocol: Acylation of RNA in yeast cells. […] Yeast cells are grown to an OD600 of 1.0 at 30° C. in YPD medium. Cells are spun down at 4000×g and decanted. […] Cells are then spun down, decanted, and flash frozen in liquid nitrogen. Frozen pellets are resuspended in 500 uL of 50 mM NaOAc pH5.0, 10 mM EDTA pH 8.0 and 100 uL of 10% SDS. […] Cells are incubated at 65° C. for 1 minute. The freeze thaw cycle is repeated three times.
(§1) Extensions are performed for ten minutes.

human 5S rRNA = test: Acylation of 5S rRNA in vitro (SHAPE)
Protocol: Acylation of RNA, in vitro. In a typical in vitro modification protocol, 6 μg total RNA is heated in metal-free water for two minutes at 95° C. The RNA is then flash-cooled on ice. The RNA 3× SHAPE buffer (333 mM HEPES, pH 8.0, 20 mM MgCl2, 333 mM NaCl) is added and the RNA allowed to equilibrate at 37° C. for ten minutes. To this mixture, 1 μL of 10× electrophile stock in DMSO (+) or DMSO (−) is added. The reaction is permitted to continue until the desired time. Reactions are quenched with 60 μL of DMS stop solution (0.5 M β-mercaptoethanol, 0.75 M Na.acetate, pH 5.5). Reactions are extracted once with acid phenol:chloroform (pH 4.5±0.2) and twice with chloroform. RNA is precipitated with 40 μL of 3M sodium acetate buffer (pH 5.2) and 1 μL of glycogen (20 ug/uL).
as §1

[3] = Hydrolysis of NAI and FAI in aqueous buffer (absorbance decay); type: physicochemical; conditions: 100 mM HEPES, 100 mM NaCl, 10 mM MgSO4, pH 8.0; fit f=y0+a*exp(−b*x); in 1/min
Protocol: Hydrolysis of NAI and FAI. Hydrolysis of NAI and FAI is monitored by adding 1.5 μL of a 100 mM solution of either NAI or FAI in spectroscopic grade DMF to 598.5 μL of buffer (100 mM HEPES, 100 mM NaCl, 10 mM MgSO4, pH 8.0) and monitoring the decrease in absorbance at 265 nm (NAI) or 275 nm (FAI). Three parameter pseudo-first order exponential decay kinetics are fit using OriginPro 8.0 software using the equation: f=y0+a*exp(−b*x)

5S rRNA [4] = type: cell-based, mouse
Protocol: (§2) Cells are then spun down and decanted. […] Extensions are performed for ten minutes.

5S rRNA [5] = type: cell-based, Drosophila melanogaster; conditions: Drosophila S2 cells
Protocol: as §2

[6] = test system: U1 snRNA, U2 snRNA, SNORD3A; test: Acylation of nuclear RNAs in HeLa S3 cells; type: cell-based, Homo sapiens; conditions: HeLa S3, 200 mM final, thirty minutes
Protocol: Cells are then spun down and decanted. […] NO: 12). […] NO:7) (SEQ ID NO:13). […] NO:14). […] Extensions are performed for ten minutes.

5S rRNA [7] = type: cell-based; conditions: cultured human cancer cells
Protocol: as §2

5S rRNA [8] = test: Acylation of RNA in E. coli cells; type: cell-based, Escherichia coli
Protocol: Acylation of RNA in E. coli cells. […] E. coli cells are grown to an OD600 of 0.25 at 37° C. in […]. Cells are spun down at 4000×g and decanted. […] Cells are resuspended in a final volume of a fresh solution of 800 μl 0.5 mg/ml lysozyme, TE pH 8.0. 80 μl of 10% SDS is added to the mixture and the slurry is placed at 64° C. for 1-2 min. After incubation add 88 μl 1 M NaOAc, pH5.2 is added. The samples are added to an equal volume (1 ml) of water-saturated phenol (pH <7.0) and incubated at 64° C. for 6 min. The resultant slurry is spun at max speed (14,000 rpm) for 10 min at 4° C. […] Reverse transcription primer used for E. coil 5S rRNA: 5′-[…] (SEQ ID NO: 10).
as §1

ATP [9] = conditions: see Weeks et al., J. Am. Chem. Soc. 127, 4223-4231, 2005; cited from earlier work
HOTAIR = test: Secondary structure probing of in vitro transcribed HOTAIR RNA; conditions: 5′ end of HOTAIR
Protocol: ABI-1 as a probe of RNA secondary structure. To evaluate the compound's ability to modify RNA at conformationally flexible positions ABI-1 was tested in comparison to NMIA. […] After incubation, the RNA was extracted and precipitated with ethanol.
ABI-1 Reversible Modification and Cell-Permeability. […] FIG. 15A.

Solubility = type: physicochemical
ATP [10] = test system: ATP
Protocol: Briefly, 10,000 cpm/uL of radiolabeled ATP is incubated with increasing amounts of NAI or FAI (10% final volume) in 100 mM HEPES buffer, pH 8.0, containing 6 mM MgCl2, 100 mM NaCl. Reactions are stopped by addition of an equal volume of Gel Loading Buffer 11 (Ambion, Inc.) and placed on ice. […] Single adduct reaction rates and percentages are calculated by integrating bands (Image Quant, IM Support) and fit to a single exponential.

Row | SMILES | Retained reactivity with ATP in aqueous buffer (ATP [1]) | 5S rRNA modification in cells (5S rRNA [2]) | Sites of modification mapped to predicted secondary structure (human 5S rRNA) | Cell attachment, morphology and trypan blue staining (V6.5 mESCs) | b (pseudo-first order exponential decay constant of hydrolysis) [3] | Time at which modification signal begins to plateau (5S rRNA [4]; 100 mM NAI, murine ESCs) [min] | Time to 5S rRNA modification with suitable signal-to-noise ratio (5S rRNA [4]; 100 mM NAI, murine ESCs) | 5S rRNA modification in cells (reverse transcription blocks) (5S rRNA [4]; live mouse ESC, aqueous buffer) | Extent of modification in cells, comparison of probes (5S rRNA [4]; same concentration) | 5S rRNA modification in cells (5S rRNA [5]) | Modification of nuclear, lower abundant RNAs [6] | 5S rRNA modification in cells (5S rRNA [7]) | 5S rRNA modification in cells (5S rRNA [8]) | Retained reactivity in aqueous buffer (ATP [9]) | Mapping of RNA secondary structure (HOTAIR) | maximum solubility (Solubility) [mM] | Result (qualitative: reactivity toward ATP, hydrolysis, solubility) (ATP [10])
1 | Cc1ncccc1C(=O)n1ccnc1 [NAI, 2-methylnicotinic acid imidizolide] | retain reactivity with ATP at 120 minutes | modifies 5S rRNA | map to residues that are predicted to be flexible | remained attached to tissue culture vessel, appeared morphologically normal and unstained by trypan blue | .020476 | ≤ 15 | in as little as one minute | caused blocks in subsequent reverse transcription | greater extent of modification than FAI | modifies 5S rRNA | modifies nuclear, lower abundant RNAs | modifies 5S rRNA | modifies 5S rRNA |  |  |  | 
2 | Cn1c(=O)oc(=O)c2ccccc21 [NMIA, N-methylisotoic anhydride] |  |  | map to residues that are predicted to be flexible |  |  |  |  |  |  |  |  |  |  | mostly quenched after thirty minutes | successfully mapped the predicted secondary structure of the 5′ end of HOTAIR | 13 | 
3 | N#CC(=O)OCc1ccccc1 |  |  |  |  |  |  |  |  |  |  |  |  |  |  |  |  | Too Reactive, High Hydrolysis
